Data as given in patent publication US11246929B2, “Combination of a protein kinase inhibitor and an additional chemotherapeutic agent” (Merck Patent GmbH, priority 2016, dated 2022).

System: MO59K (DNA-PK wild type)
Assay: AlamarBlue viability assay
Assay type: cell-based, human
Conditions: compound incubation for 72 h
Experimental: Details of the assay protocol and material utilized are set forth below.
After 24 h incubation at 37° C.
At the end of the compound incubation period 20 μl AlamarBlue reagent was added per well and the 96-well plates were incubated further up to seven hours. Absorption was determined at 540 nm by using Tecan Reader Connect and Magelan 7.
0% effect=cells treated with DMSO; −100% effect=no cells

[2H]c1nc(C)nc([2H])c1-c1cc(NC[C@@H](C)c2cccc3c(C(N)=O)ccnc23)ncn1 [VX984, 8-[(1S)-2-[[6-(4,6-dideuterio-2-methylpyrimidin-5-yl)pyrimidin-4-yl]amino]-1-methylethyl]quinoline-4-carboxamide]
potentiation of etoposide, Compound 1 in comparison to VX-984: requires higher concentrations of etoposide to arrive at the same % effect
